Assays:
[1] = target: T1, GDP-loaded KRAS (1-169) G12C, C51S, C80L, C118S (Homo sapiens, UniProt P01116, C118S/C51S/C80L/G12C); experiment: Mass Spectrometry Reactivity Assay (MSRA): covalent adduct of compound and KRAS G12C, Percent Modification; assay type: binding; settings: for MSRA (% modification) 10 μM 0.25 hr / MSRA (% modification) 10 μM 0.50 hr: 10 μM compound; for MSRA (% modification) 5.0 μM 0.017 hr / MSRA (% modification) 5.0 μM 0.25 hr: 5.0 μM compound
T1 construct: GDP-loaded KRAS (1-169) G12C, C51S, C80L, C118S
Outline: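 GDP-loaded KRAS(1-169) G12C/C51S/C80L/C118S at 5 μM in 25 mM Hepes pH 7.5, 200 mM NaCl, 5% glycerol incubated at RT with compound (typically 5 or 10 μM final, 1% DMSO). Quenched in formic acid at 1-60 min; intact-protein LC-TOF MS gives % modification = modified/(modified+unmodified).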

[2] = target: KRAS G12C (Homo sapiens, UniProt P01116, G12C); experiment: Cell Activity Assay: accumulation of GDP-bound KRAS G12C in MIAPaCa-2 cells (Raf-1 RBD capture, MSD readout); assay type: cell-based; design: endogenous in cells; host or cells: MIAPaCa-2; settings: 6 hours, assay limit is 30.00
Outline: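 MIAPaCa-2 cells exposed 6 h at 37 °C to 3-fold compound dilutions (0.3% DMSO final), then lysed. Active GTP-KRAS captured on Raf-1 RBD-coated plates, detected with anti-pan-Ras and SULFO-TAG secondary by MSD electrochemiluminescence. Signal normalized to DMSO and maximum inhibition; IC50 from 4-parameter fit.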

MSRA (% modification) 10 μM 0.25 hr [1] [%] | IC50 [2] [µM] | MSRA (% modification) 5.0 μM 0.017 hr [1] [%] | MSRA (% modification) 5.0 μM 0.25 hr [1] [%] | MSRA (% modification) 10 μM 0.50 hr [1] [%] | SMILES
81 | 0.072 |  |  |  | C=CC(=O)N1CCN(c2nc(OC[C@H]3C[C@@H](F)CN3C)nc3c(Oc4c(Cl)c(F)cc5[nH]ncc45)nc(Cl)cc23)CC1 [Example 22G, 1-[4-(6-chloro-8-[(5-chloro-6-fluoro-1H-indazol-4-yl)oxy]-2-{[(2R,4R)-4-fluoro-1-methylpyrrolidin-2-yl]methoxy}pyrido[3,4-d]pyrimidin-4-yl)piperazin-1-yl]prop-2-en-1-one]
 | 0.135 | 26 |  |  | C=CC(=O)N1CCN(c2nc(O[C@@H]3CN(C)C[C@@H]3C)nc3c(Oc4c(Cl)c(F)cc5[nH]ncc45)nc(Cl)cc23)CC1 (racemic) [Example 31G, rac-1-[4-(6-chloro-8-[(5-chloro-6-fluoro-1H-indazol-4-yl)oxy]-2-{[(3R,4R)-1,4-dimethylpyrrolidin-3-yl]oxy}pyrido[3,4-d]pyrimidin-4-yl)piperazin-1-yl]prop-2-en-1-one]
 | 0.366 |  | 14 |  | C=CC(=O)N1CCN(c2nc(Oc3cccnc3C)nc3c(Oc4c(Cl)c(F)cc5[nH]ncc45)nccc23)CC1 [Example 14I, 1-(4-{8-[(5-chloro-6-fluoro-1H-indazol-4-yl)oxy]-2-[(2-methyl-pyridin-3-yl)oxy]pyrido [3,4-d]pyrimidin-4-yl}piperazin-1-yl)prop-2-en-1-one]
 | 11.8 |  |  | 11 | C=CC(=O)N1CCN(c2ncnc3c(Oc4c(C)ccc5[nH]ncc45)nccc23)CC1 [Example 01A, 1-(4-{8-[(5-methyl-1H-indazol-4-yl)oxy]pyrido[3,4-d]pyrimidin-4-yl}piperazin-1-yl)prop-2-en-1-one]
 | 1.01 |  | 12 | 60 | C=CC(=O)N1CCN(c2ncnc3c(Oc4c(Cl)c(F)cc5[nH]ncc45)nccc23)CC1 [Example 02C, 1-(4-{8-[(5-chloro-6-fluoro-1H-indazol-4-yl)oxy]pyrido[3,4-d]pyrimidin-4-yl}piperazin-1-yl)prop-2-en-1-one]
 | 0.842 |  | 51 | 72 | C=CC(=O)N1CCN(c2nc(OC[C@@H]3COCCN3C)nc3c(Oc4c(Cl)c(F)cc5[nH]ncc45)nccc23)CC1 [Example 03H, 1-[4-(8-[(5-chloro-6-fluoro-1H-indazol-4-yl)oxy]-2-{[(3S)-4-methylmorpholin-3-yl]methoxy}pyrido[3,4-d]pyrimidin-4-yl)piperazin-1-yl]prop-2-en-1-one]
 | 0.638 |  | 33 |  | C=CC(=O)N1CCN(c2nc(N3C[C@@](C)(O)[C@@H]3C)nc3c(Oc4c(Cl)c(F)cc5[nH]ncc45)nccc23)CC1 [Example 06J, 1-(4-{8-[(5-chloro-6-fluoro-1H-indazol-4-yl)oxy]-2-[(2S,3R)-3-hydroxy-2,3-dimethylazetidin-1-yl]pyrido[3,4-d]pyrimidin-4-yl}piperazin-1-yl)prop-2-en-1-one]

Continued, compound first:

SMILES | MSRA (% modification) 10 μM 0.25 hr [1] [%] | IC50 [2] [µM] | MSRA (% modification) 5.0 μM 0.017 hr [1] [%] | MSRA (% modification) 5.0 μM 0.25 hr [1] [%] | MSRA (% modification) 10 μM 0.50 hr [1] [%]
C=CC(=O)N1CCN(c2nc(NC3CNC(=O)C3)nc3c(Oc4c(C)ccc5[nH]ncc45)cccc23)CC1 (centres unmarked) [Example 15F, 4-({4-(4-acryloylpiperazin-1-yl)-8-[(5-methyl-1H-indazol-4-yl)oxy]quinazolin-2-yl}amino)pyrrolidin-2-one] |  | > 30 |  |  | 13
C=CC(=O)N1CCN(c2ncnc3c(Oc4c(C)ccc5[nH]ncc45)nccc23)[C@@H](C)C1 [Example 10A, 1-[(3S)-3-methyl-4-{8-[(5-methyl-1H-indazol-4-yl)oxy]pyrido[3,4-d]pyrimidin-4-yl}piperazin-1-yl]prop-2-en-1-one] |  | 7.5 |  |  | 10
C=CC(=O)N1CCN(c2ncnc3c(Oc4c(C)ccc5[nH]ncc45)nc(C)cc23)CC1 [Example 02A, 1-(4-{6-methyl-8-[(5-methyl-1H-indazol-4-yl)oxy]pyrido[3,4-d]pyrimidin-4-yl}piperazin-1-yl)prop-2-en-1-one] |  | 5.25 |  |  | 15
C=CC(=O)N1CCN(c2ncnc3c(Oc4c(C(F)(F)F)ccc5[nH]ncc45)nccc23)CC1 [Example 04C, 1-[4-(8-{[5-(trifluoromethyl)-1H-indazol-4-yl]oxy}pyrido[3,4-d]pyrimidin-4-yl)piperazin-1-yl]prop-2-en-1-one] |  | 18.2 |  |  | 21
C=CC(=O)N1CCN(c2nc(OC[C@@H]3CCCN3C)nc3c(Oc4c(Cl)c(F)cc5[nH]ncc45)nc(Cl)cc23)C[C@@H]1C [Example 07G, 1-[(2S)-4-(6-chloro-8-[(5-chloro-6-fluoro-1H-indazol-4-yl)oxy]-2-{[(2S)-1-methylpyrrolidin-2-yl]methoxy}pyrido[3,4-d]pyrimidin-4-yl)-2-methylpiperazin-1-yl]prop-2-en-1-one] | 77 | 0.404 |  |  | 
C=CC(=O)N1CCN(c2nc(OC[C@H]3CCN(C)C3)nc3c(Oc4c(Cl)c(F)cc5[nH]ncc45)nccc23)CC1 [Example 18E, 1-[4-(8-[(5-chloro-6-fluoro-1H-indazol-4-yl)oxy]-2-{[(3S)-1-methylpyrrolidin-3-yl]methoxy}pyrido[3,4-d]pyrimidin-4-yl)piperazin-1-yl]prop-2-en-1-one] | 80 | 0.262 |  |  | 
C#CCN1C[C@@H](OC)[C@H](Oc2nc(N3CCN(C(=O)C=C)CC3)c3ccnc(Oc4c(Cl)c(F)cc5[nH]ncc45)c3n2)C1 [Example 43I, 1-[4-(8-[(5-chloro-6-fluoro-1H-indazol-4-yl)oxy]-2-{[(3R,4R)-4-methoxy-1-(prop-2-yn-1-yl)pyrrolidin-3-yl]oxy}pyrido [3,4-d]pyrimidin-4-yl)piperazin-1-yl]prop-2-en-1-one] |  | 0.019 | 54 |  | 
C=CC(=O)N1CCN(c2ncnc3c(Oc4c(Cl)c(F)cc5[nH]ncc45)nc(C#N)cc23)CC1 [Example 32A, 4-(4-acryloylpiperazin-1-yl)-8-[(5-chloro-6-fluoro-1H-indazol-4-yl)oxy]pyrido[3,4-d]pyrimidine-6-carbonitrile] |  | 0.681 |  |  | 74
C=CC(=O)N1CCN(c2nc(N(C)CCC(=O)NC)nc3c(Oc4c(C)ccc5[nH]ncc45)cccc23)CC1 [Example 14F, N^3-{4-(4-acryloylpiperazin-1-yl)-8-[(5-methyl-1H-indazol-4-yl)oxy]quinazolin-2-yl}-N,N^3-dimethyl-β-alaninamide] |  | 29 |  |  | 12
C=CC(=O)N1CCN(c2nc(OCCN(C)C)nc3c(Oc4c(Cl)c(C)cc5[nH]ncc45)cccc23)CC1 [Example 15E, 1-(4-{8-[(5-chloro-6-methyl-1H-indazol-4-yl)oxy]-2-[2-(dimethylamino)ethoxy]quinazolin-4-yl}piperazin-1-yl)prop-2-en-1-one] | 59 | 0.51 |  | 56 | 74
